The nature of data set [1]: Deliquescence test (storage at 40° C. and 75% relative humidity). Also on record: key: “Absence of deliquescence” refers to that no moisture absorption is observed on the sample surface; Slight: “slight deliquescence” refers to that moisture absorption is observed on the sample surface; Obvious: “obvious deliquescence” refers to that lubrication can be observed on the sample surface. Format: physicochemical. On the procedure:
• (1) Deliquescence test: The product A, crystal form I, and TAK-438 were stored at 40° C. and 75% relative humidity and observed for deliquescence for 30 days, with results recorded every 10 days as detailed in the table below.
(§1) “Absence of deliquescence” refers to that no moisture absorption is observed on the sample surface, “slight deliquescence” refers to that moisture absorption is observed on the sample surface, and “obvious deliquescence” refers to that lubrication can be observed on the sample surface. • (2) Thermal stability test: The product A and crystal form I were stored separately in open containers at 60° C. and tested for storage stability after 30 days (Day 31). Samples at initial and after 30 days of storage were tested for purity by HPLC with three replicates per sample and averaged and the results are presented in the following table.

The nature of data set [2]: Thermal stability test (open containers at 60° C., purity by HPLC). To be noted: mean of three replicates; for Purity (%), Day 31: HPLC purity after 30 days in open container at 60° C.; for Purity (%), Initial point: HPLC purity before storage. Format: physicochemical. On the procedure: The chromatographic conditions for HPLC purity testing of the product involved in the present invention are as follows:
Column: Ultimate XB-C18, column length: 150 mm, inner diameter: 4.6 mm, particle size: 5 μm
Flow rate: 1.2 mL/min; column temperature: 30° C.; wavelength: 210 nm; injection volume: 20 μL; solvent: acetonitrile-water (volume ratio 5:95)
Mobile phase A: acetonitrile-0.02 mol/L potassium dihydrogen phosphate (adjusted to pH 2.5 with phosphoric acid) (volume ratio 5:95)
Mobile phase B: methanol-acetonitrile-0.02 mol/L potassium dihydrogen phosphate (adjusted to pH 2.5 with phosphoric acid) (volume ratio 7:63:30)
The proportions of mobile phases A and B over time are as follows:
as §1

In data set [3] the target is T1, H^+K^+-ATPase (Sus scrofa, UniProt P19156).
T1 construct: H^+K^+ATPase was extracted from porcine gastric mucosal microsomal vesicles by iPhase; tissue iPhase; host or cells: porcine gastric mucosa, microsomal vesicles
T1 sequence (P19156 2-1034 limits assumed): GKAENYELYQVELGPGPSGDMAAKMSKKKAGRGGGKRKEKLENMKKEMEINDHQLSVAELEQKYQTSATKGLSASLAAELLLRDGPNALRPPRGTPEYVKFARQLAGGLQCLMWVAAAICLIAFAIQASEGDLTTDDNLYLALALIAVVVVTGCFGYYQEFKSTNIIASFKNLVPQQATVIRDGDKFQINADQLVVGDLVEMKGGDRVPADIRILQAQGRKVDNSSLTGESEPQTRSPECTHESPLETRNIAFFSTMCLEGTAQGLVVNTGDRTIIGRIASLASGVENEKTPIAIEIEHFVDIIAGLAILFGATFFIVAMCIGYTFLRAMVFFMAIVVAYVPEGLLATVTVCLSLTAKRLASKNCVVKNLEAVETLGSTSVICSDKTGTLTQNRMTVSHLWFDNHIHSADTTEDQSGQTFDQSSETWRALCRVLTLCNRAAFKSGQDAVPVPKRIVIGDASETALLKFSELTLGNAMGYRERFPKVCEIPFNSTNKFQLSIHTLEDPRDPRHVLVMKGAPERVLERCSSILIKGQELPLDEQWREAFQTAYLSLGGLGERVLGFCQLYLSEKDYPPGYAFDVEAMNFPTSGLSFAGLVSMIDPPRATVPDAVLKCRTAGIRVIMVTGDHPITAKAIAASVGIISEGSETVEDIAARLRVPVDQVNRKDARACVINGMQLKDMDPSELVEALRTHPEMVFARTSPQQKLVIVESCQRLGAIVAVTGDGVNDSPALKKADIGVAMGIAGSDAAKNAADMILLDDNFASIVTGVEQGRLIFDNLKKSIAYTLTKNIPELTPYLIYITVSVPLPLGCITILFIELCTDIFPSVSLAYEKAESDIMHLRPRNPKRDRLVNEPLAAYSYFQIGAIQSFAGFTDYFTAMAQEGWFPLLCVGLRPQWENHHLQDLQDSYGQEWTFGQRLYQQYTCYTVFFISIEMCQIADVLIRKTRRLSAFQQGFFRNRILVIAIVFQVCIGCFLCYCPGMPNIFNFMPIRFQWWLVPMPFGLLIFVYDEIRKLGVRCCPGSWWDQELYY
T1 sequence (P18434 whole entry partner): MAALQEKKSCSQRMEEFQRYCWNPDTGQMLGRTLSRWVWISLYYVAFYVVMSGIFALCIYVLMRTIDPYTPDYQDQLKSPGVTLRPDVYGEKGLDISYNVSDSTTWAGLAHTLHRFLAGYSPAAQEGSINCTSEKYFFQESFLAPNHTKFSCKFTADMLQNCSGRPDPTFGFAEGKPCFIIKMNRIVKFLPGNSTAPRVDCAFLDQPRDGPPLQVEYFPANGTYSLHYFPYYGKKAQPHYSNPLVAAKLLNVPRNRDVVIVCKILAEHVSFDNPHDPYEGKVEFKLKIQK
Put plainly: Inhibition of H^+K^+-ATPase in microsomal vesicles of porcine gastric mucosa. In kind it is biochemical. The following applies: pH 6.8, inorganic phosphorus readout. The text has this: Test method: H^+K^+-ATPase is an ATPase localized in gastric mucosal parietal cells and activated exclusively by K^+. In this experiment, H^+K^+-ATPase was extracted from the microsomal vesicles of porcine gastric mucosa, and ATPase could decompose ATP to generate ADP and inorganic phosphorus. The test article combined H^+K^+-ATPase and inhibited its activity. The level of ATPase activity was judged by measuring the amount of inorganic phosphorus, and the inhibitory effect of the test article was determined.
H^+K^+ATPase was extracted from porcine gastric mucosal microsomal vesicles by iPhase.
100 mM TRIS-HCL (PH 6.8): 100 μL 1M TRIS-HCL was added to 900 μl ddH2O and mixed well.
37.5 mM MgCl2: 50 mg MgCl2 was added to […] ddH2O and mixed well. 200 mM KCl: 500 mg KCl was added to 33.5 mL ddH2O and mixed well. 10 mM nigericin and valinomycin: 669 μl and 890 μL DMSO were added and mixed, dispensed into 1 μL nigericin and 5 μl valinomycin per tube, and stored at −20° C.
0.1 mg/ml microsomal vesicles: Protein concentrations were determined upon arrival and dispensed, stored at −80° C., and diluted with 5 mM TRIS-HCL for use.
Control compound: TAK438 was prepared as a 10 mM stock solution in DMSO and dispensed in 1 μL per tube.
Test compound: Product A and crystal form I were prepared as 10 mM stock solutions in ddH2O, and dispensed in 1 μL per tube.
With 20 μM (or 40 μM) as the highest concentration, the control compound and the test compound were diluted stepwise 3-fold with DMSO and ddH2O, respectively, to obtain the samples to be tested at 6 (or 7 or 8) concentration gradients.
Water bath at 37° C. for 30 min, 16.5 μL ATP added and mixed well, and water bath at 37° C. for 30 min
The chromogenic agent was prepared based on the instructions of *H^+K^+ ATP kit (Nanjing Jiancheng).
Per the enzymatic reaction volume of 150 μL, 45 μl of chromogen was added and mixed well, allowed to stand for 2 min, and the absorbance light signal at 660 nm was read by a microplate reader.
• 1) The inhibition rate was calculated according to the following formula: […]

In data set [4] the test system is histamine-induced gastric acid secretion. The data set is described as follows: Effect on histamine-induced gastric acid secretion in rats. In kind it is in vivo, SD rats. The text has this: Surgical modeling: Rats were anesthetized with intraperitoneal injection of ethyl carbamate at a dose of 1.5 g/kg. Rats under complete anesthesia were shaved from the neck and abdomen, and were intubated to maintain airway patency during surgery. The cardiac perfusion tube was orally inserted about 1 cm into the stomach of rats, and the other end of the cardiac perfusion tube was connected to a constant flow pump. A small incision was made below the xiphoid cartilage to find the duodenum, an incision was made transversely, the end of the collection tube of gastric pyloric samples was passed along the duodenum into the stomach about 1 cm through the wound, the duodenum was tightened with the collection tube of gastric pyloric samples with a suture, and the other end of the duodenal incision was tightened. Gastric lavage remnants were rapidly flushed along the esophago-cardia cannula with 150 mL of 37° C. prewarmed saline, outflowed through the collection tube of gastric pylorus samples, and the abdominal wall was sutured to the skin. Perfusion was continued with normal saline at a rate of 1 mL/min for 30 min, the other end of the col-lection tube for gastric pyloric samples was left in vitro, gastric juice samples were collected in conical flasks (one sample per 20 min of col-lection), and two basal gastric juice samples were collected, at which time basal gastric acid secretion reached a steady state.
Histamine-induced gastric acid secretion: Histamine was administered to rats by continuous tail vein injection with a microinjection pump at a dose of 20 μmol/kg/hr. Gastric acid was collected after 80 min, and after three time points, histamine secretion reached a steady state in rats, which was grouped according to the value of gastric acid secretion after histamine administration in rats, and candidate drugs or vehicle controls were administered based on the protocol. […] The details are as follows:
The required amount of Vonoprazan fumarate was weighed, added with an appropriate amount of 0.5% CMC-Na, stirred, sonicated to obtain a homogeneous suspension, and diluted sequentially to the corresponding concentration according to the concentration required by the protocol.
The required amount of HW-N2001 was weighed, added with appropriate physiological saline, and mixed thoroughly to obtain a clear solution, and the pH was adjusted to a range of 3.2 to 3.8. Based on the concentrations required by the protocol, the corresponding concentrations were successively diluted.
One hundred and eighteen of 130 SD rats in good health were selected and randomly divided into 8 groups according to body weight and base-line value after histamine administration after the end of the adaptation period, as detailed in the table below.
Collected gastric juice samples were taken and titrated with 0.01 N sodium hydroxide solution by a basic burette to PH7 as the endpoint, with the phenolphthalein indicator as a color indicator. The titration volume was measured and the acid secretion is calculated according to the following formula: acid secretion (μEq)=volume of NaOH (mL)×10^−3×0.01 mol/L×10^6.
Two basal gastric juice samples were collected, and an infusion extension tube prematurely inhaled with histamine was connected to the indwelling needle of tail vein in rats after basal gastric acid levels were stabilized. The syringe pump was opened, and histamine was calculated according to the dose of 20 μmol/kg/hr and the intravenous drip rate of each animal in the syringe pump was set. Gastric acid samples after histamine administration were collected after 80 minutes of continuous injection of histamine solution.

Setting [5] is: 0.375 mg/kg i.v., 60 min after administration.
[6] abbreviates: 0.375 mg/kg i.v., 180 min after administration.
The mark [7] stands for this setting: 0.75 mg/kg i.v., 20 min after administration.
[8] abbreviates: 1.5 mg/kg i.v., 20 min after administration.
Where [9] appears, read: 1.5 mg/kg i.v., 80 min after administration.
[10] abbreviates: 1.5 mg/kg i.v., 180 min after administration.
Setting [11] is: 2 mg/kg i.d., 60 min after administration.
The mark [12] stands for this setting: 2 mg/kg i.d., 180 min after administration.
Setting [13] is: 4 mg/kg i.d., 40 min after administration.
[14] abbreviates: 4 mg/kg i.d., 180 min after administration.

Where a name gives a salt, the structure may show the parent alone.

For orientation: IC50 means the concentration needed to halve the response being measured.

Turning to “5-(2-fluorophenyl)-N-methyl-1-(3-pyridylsulfonyl)-1H-pyrrole-3-methylamine pyroglutamate [Crystal form I]”, the “Deliquescence, Day 10” value in data set [1] was “Absence of”. The “Deliquescence, Day 20” value in data set [1] is recorded as “Slight”. Also, the “Deliquescence, Day 30” value in data set [1] is given as “Obvious”. Also, the “Purity (%), Day 31” value in data set [2] is reported as 99.2%. Moreover, the “Purity (%), Initial point” value in data set [2] came out at 99.8%. In addition, in data set [3], the half-maximal inhibitory concentration (IC50) was 40.4 nM. Moreover, the Gastric acid secretion in data set [4] (setting [5]) was determined as 39.15±8.54 μEq HCl/20 min; in data set [4] (setting [6]), 28.46±5.71 μEq HCl/20 min; in data set [4] (setting [7]), 37.53±9.87 μEq HCl/20 min; in data set [4] (setting [8]) it was 25.67±10.15 μEq HCl; in data set [4] (setting [9]) it was 3.4±1.18 μEq HCl; in data set [4] (setting [10]), 2.2±0.56 μEq HCl. The “Inhibition rate of gastric acid secretion” value (“Inhibition rate” below) in data set [4] (setting [5]) is listed as 4.34%±1.28; in data set [4] (setting [6]), 27.52%±1.43; in data set [4] (setting [7]) it was 11.6%±0.82; in data set [4] (0.75 mg/kg i.v., 180 min after administration), 73.68%±1.47; in data set [4] (setting [8]), 33.28%±0; in data set [4] (setting [9]) it was 89.64%±0. In addition, in data set [4] (setting [10]), the “Inhibition rate” value is given as 93.56%±0.09. In addition, in data set [4] (0.75 and 1.5 mg/kg i.v.), the “Time after administration at which pharmacodynamic effect reached a stable state” value was 60 to 100 min. Also, the “Time after administration at which pharmacodynamic effect was gradually exerted” value in data set [4] (0.75 and 1.5 mg/kg i.v.) is 20 min. The compound further showed an ID50 in data set [4] (intravenous administration, 180 min after administration) of 0.53 mg/kg.
With “5-(2-fluorophenyl)-N-methyl-1-(3-pyridylsulfonyl)-1H-pyrrole-3-methylamine pyroglutamate [Product A]”, in data set [1], the “Deliquescence, Day 10” value is recorded as “Slight”; the “Deliquescence, Day 20” value is listed as “Obvious”; the “Deliquescence, Day 30” value was “Obvious”. Also, in data set [2], the “Purity (%), Day 31” value came out at 94.6% and the “Purity (%), Initial point” value turned out to be 98.0%. The same compound registered a half-inhibitory concentration (IC50) in data set [3] of 53.4 nM.
With `CNCc1cc(-c2ccccc2F)n(S(=O)(=O)c2cccnc2)c1` [TAK-438, Vonoprazan fumarate], the “Deliquescence, Day 10” value in data set [1] is given as “Absence of”. The “Deliquescence, Day 20” value in data set [1] was “Absence of”. For the same compound, the “Deliquescence, Day 30” value in data set [1] is on record as “Absence of”. The compound further showed an IC50 in data set [3] of 41.5 nM. Further, the “Gastric acid secretion after administration vs vehicle” value in data set [4] (1 mg/kg i.d., rats) is on record as “not significantly decreased”. The “Time after administration at which pharmacodynamic effect was gradually exerted” value in data set [4] (2 mg/kg i.d.) stood at 60 min; in data set [4] (4 mg/kg i.d.), 140 min. In addition, the Gastric acid secretion is listed as 33.21±15.63 μEq HCl/20 min in data set [4] (setting [11]), 16.21±14.46 μEq HCl/20 min in data set [4] (setting [12]), 33.18±11.15 μEq HCl/20 min in data set [4] (setting [13]) and 4.41±4.02 μEq HCl/20 min in data set [4] (setting [14]). In addition, the “Inhibition rate” value is listed as 13.71%±2.12 in data set [4] (setting [11]), 57.48%±2.27 in data set [4] (setting [12]), 12.47%±1.13 in data set [4] (setting [13]) and 87.03%±0.81 in data set [4] (setting [14]). The “Time at which strongest efficacy was reached” value in data set [4] (duodenal administration) worked out at 180 min. The ID50 in data set [4] (duodenal administration, 180 min) was determined as 1.87 mg/kg.
